# According to patent publication US20240376097A1, “BCL-2 Inhibitor” (BeiGene Ltd., priority 2020, published 2024):
# Where two headings read alike, the source gives them in different places.
# Tests used:
# [1] = target: Recombinant human Bcl-2 protein (Homo sapiens (Human), UniProt P10415); assay: Bcl-2 TR-FRET Assay; format: binding
# How it was run: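 In pH 7.5 phosphate buffer containing NaCl, EDTA, Tween-20 and BSA, 0.05 nM Bcl-2 saw serially diluted compound for 0.5 h before 0.5 nM FITC-Bak peptide was added. Signal ratio at 520/490 nm after 1 h yielded IC50.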
# [2] = target: recombinant human Bcl-2-G101V protein (Homo sapiens (Human), UniProt P10415, G101V); assay: Bcl-2-G101V TR-FRET Assay; format: binding; details: Bcl-2 G101V mutant, TR-FRET; read-out: Biochemical assay (IC50, nM) Bcl-2 G101V
# How it was run: (§1)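 Ex337/em490 & 520 nm TR-FRET; % inhibition of Bcl-2-G101V–ligand interaction from 490:520 ratio vs. increasing compound conc.; IC50 by 4-parameter logistic fit.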
# [3] = system: recombinant human Bcl-2-G101V protein; assay: Bcl-2-G101V TR-FRET Assay; format: binding; details: ratio of biochemical IC50 Bcl-2 G101V / Bcl-2 WT
# How it was run: as §1
# [4] = system: RS4;11 (BCL-2 dependent acute lymphoblastic leukemia cell line); assay: RS4;11 Cell Proliferation Assay; format: cell-based; details: Homo sapiens, RS4-11, RS4;11 cells, read-out: Cellular proliferation assay (IC50, nM) RS4
# How it was run: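 Viability measured via CellTiter-Glo luminescence after a 48 h, 37 °C exposure to compounds (10 points, highest 1 μM). Seeding was 50,000 RS4;11 cells per well in 10% FBS RPMI-1640; IC50 given as mean.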
# [5] = system: BCL-2 G101V knock-in cell line H96 (derive from RS4;11); assay: Bcl 2-G101V Knock-In RS4;11 Cell Proliferation Assay; format: cell-based; details: Homo sapiens, RS4;11 Bcl-2 G101V knock-in clone H96, 48 hrs, CellTiter-GLO, read-out: Cellular proliferation assay (IC50, nM) RS4
# How it was run: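 CellTiter-Glo luminescence after 48 h, 37 °C compound treatment (10 concentrations, maximum 1 μM or 10 μM) gave mean IC50 values. Cells were 50,000 per well of H96, a BCL2-G101V knock-in single clone derived from RS4;11 by Cas9 editing.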
# [6] = target: recombinant human Bcl-2 D103Y protein (Homo sapiens (Human), UniProt P10415, D103Y); assay: Bcl-2-D103Y Biochemical Assay (TR-FRET); format: binding; details: for IC50: TR-FRET, FITC labeled Bak peptide; for Ratio of Bcl-2 D103Y/Bcl-2 WT: ratio of IC50
# How it was run: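 Compounds titrated against the Bcl-2 D103Y–ligand interaction; inhibition derived from the TR-FRET emission ratio 490 nm/520 nm after 337 nm excitation. Four-parameter logistic fitting gave IC50.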
# [7] = Bcl-2 wild type, TR-FRET, read-out: Biochemical assay (IC50, nM) Bcl-2 WT
# [8] = wild type Bcl-2, unit inferred, read-out: Bcl-2 WT
Structure (SMILES),"IC50 [1, 7] [nM]","IC50 [1, 8] [nM]",IC50 [2] [nM],Ratio of Bcl-2 G101V/WT [3],IC50 [4] [nM],IC50 [5] [nM],IC50 [6] [nM],Ratio of Bcl-2 D103Y/Bcl-2 WT [6]
"[2H]C([2H])([2H])Oc1cc(CN2CCN(C3CC4(C3)CN(c3ccc(C(=O)NS(=O)(=O)c5ccc(NC[C@H]6CC[C@](C)(O)CC6)c([N+](=O)[O-])c5)c(Oc5cnc6[nH]cc(F)c6c5)c3)C4)[C@H](c3ccccc3C(C)C)C2)cc2ccoc12 [Example 322, 2-((3-fluoro-1H-pyrrolo[2,3-b]pyridin-5-yl)oxy)-N-((4-((((1r,4r)-4-hydroxy-4-methylcyclohexyl)methyl)amino)-3-nitrophenyl)sulfonyl)-4-(6-((R)-2-(2-isopropylphenyl)-4-((7-(methoxy-d3)benzofuran-5-yl)methyl)piperazin-1-yl)-2-azaspiro[3.3]heptan-2-yl)benzamide]",0.25,0.25,0.72,2.9,0.18,0.32,0.36,1.4
"[2H]C([2H])([2H])Oc1cc(CN2CCN(C3CC4(C3)CN(c3ccc(C(=O)NS(=O)(=O)c5ccc(NC[C@H]6CC[C@](C)(O)CC6)c([N+](=O)[O-])c5)c(Oc5cnc6[nH]ccc6c5)c3)C4)[C@H](c3ccccc3C(C)C)C2)cc2ccoc12 [Example 323, 2-((1H-pyrrolo[2,3-b]pyridin-5-yl)oxy)-N-((4-((((1r,4r)-4-hydroxy-4-methylcyclohexyl)methyl)amino)-3-nitrophenyl)sulfonyl)-4-(6-((R)-2-(2-isopropylphenyl)-4-((7-(methoxy-d3)benzofuran-5-yl)methyl)piperazin-1-yl)-2-azaspiro [3.3]heptan-2-yl)benzamide]",0.22,0.22,0.45,2.1,0.21,0.42,0.19,0.87
"[2H]C([2H])([2H])Oc1cc(CN2CCN(C3CC4(C3)CN(c3ccc(C(=O)NS(=O)(=O)c5ccc(NC[C@H]6CC[C@](C)(O)CC6)c([N+](=O)[O-])c5)c(Oc5cnc6[nH]ccc6c5)c3)C4)[C@H](c3ccccc3C(C)C)C2)cc2c1OCC2(C)C [Example 324, 2-((1H-pyrrolo[2,3-b]pyridin-5-yl)oxy)-N-((4-((((1r,4r)-4-hydroxy-4-methylcyclohexyl)methyl)amino)-3-nitrophenyl)sulfonyl)-4-(6-((R)-2-(2-isopropylphenyl)-4-((7-(methoxy-d3)-3,3-dimethyl-2,3-dihydrobenzofuran-5-yl)methyl)piperazin-1-yl)-2-azaspiro[3.3]heptan-2-yl)benzamide]",0.16,0.16,0.31,1.9,0.22,0.51,0.14,0.87
"[2H]C([2H])([2H])Oc1cc(CN2CCN(C3CC4(C3)CN(c3ccc(C(=O)NS(=O)(=O)c5ccc(NC[C@H]6CC[C@](C)(O)CC6)c([N+](=O)[O-])c5)c(Oc5cnc6[nH]cc(F)c6c5)c3)C4)[C@H](c3ccccc3C(C)C)C2)cc2c1OCC2(C)C [Example 326, 2-((3-fluoro-1H-pyrrolo[2,3-b]pyridin-5-yl)oxy)-N-((4-((((1r,4r)-4-hydroxy-4-methylcyclohexyl)methyl)amino)-3-nitrophenyl)sulfonyl)-4-(6-((R)-2-(2-isopropylphenyl)-4-((7-(methoxy-d3)-3,3-dimethyl-2,3-dihydrobenzofuran-5-yl)methyl)piperazin-1-yl)-2-azaspiro[3.3]heptan-2-yl)benzamide]",0.17,0.17,0.49,3,0.19,0.34,0.25,1.5
"COc1cc(CN2CCN(C3CC4(C3)CN(c3ccc(C(=O)NS(=O)(=O)c5ccc(NC[C@H]6CC[C@](C)(O)CC6)c([N+](=O)[O-])c5)c(Oc5cnc6[nH]cc(F)c6c5)c3)C4)[C@H](c3ccccc3C(C)C)C2)cc2c1OC(C)(C)CC2 [Example 337, 2-((3-fluoro-1H-pyrrolo[2,3-b]pyridin-5-yl)oxy)-N-((4-((((1r,4r)-4-hydroxy-4-methylcyclohexyl)methyl)amino)-3-nitrophenyl)sulfonyl)-4-(6-((R)-2-(2-isopropylphenyl)-4-((8-methoxy-2,2-dimethylchroman-6-yl)methyl)piperazin-1-yl)-2-azaspiro[3.3]heptan-2-yl)benzamide]",0.12,0.12,0.37,3,0.18,0.63,0.39,3.2
"COc1cc(CN2CCN(C3CC4(C3)CN(c3ccc(C(=O)NS(=O)(=O)c5ccc(NC[C@H]6CC[C@](C)(O)CC6)c([N+](=O)[O-])c5)c(Oc5cnc6[nH]ccc6c5)c3)C4)[C@H](c3ccccc3C(C)C)C2)cc2cc(C)oc12 [Example 339, 2-((1H-pyrrolo[2,3-b]pyridin-5-yl)oxy)-N-((4-((((1r,4r)-4-hydroxy-4-methylcyclohexyl)methyl)amino)-3-nitrophenyl)sulfonyl)-4-(6-((R)-2-(2-isopropylphenyl)-4-((7-methoxy-2-methylbenzofuran-5-yl)methyl)piperazin-1-yl)-2-azaspiro[3.3]heptan-2-yl) benzamide]",0.28,0.28,0.97,3.5,0.19,0.52,0.71,2.5
"COc1cc(CN2CCN(C3CC4(C3)CN(c3ccc(C(=O)NS(=O)(=O)c5ccc(NC[C@H]6CC[C@](C)(O)CC6)c([N+](=O)[O-])c5)c(Oc5cnc6[nH]ccc6c5)c3)C4)[C@H](c3ccccc3C(C)C)C2)ccc1OC1CC1 [Example 343, 2-((1H-pyrrolo[2,3-b]pyridin-5-yl)oxy)-4-(6-((R)-4-(4-cyclopropoxy-3-methoxybenzyl)-2-(2-isopropylphenyl)piperazin-1-yl)-2-azaspiro[3.3]heptan-2-yl)-N-((4-((((1r,4r)-4-hydroxy-4-methylcyclohexyl)methyl)amino)-3-nitrophenyl)sulfonyl)benzamide]",0.11,0.11,0.3,2.7,0.11,0.25,0.09,0.8
"COc1cc(CN2CCN(C3CC4(C3)CN(c3ccc(C(=O)NS(=O)(=O)c5ccc(NC[C@H]6CC[C@](C)(O)CC6)c([N+](=O)[O-])c5)c(Oc5cnc6[nH]cc(F)c6c5)c3)C4)[C@H](c3ccccc3C(C)C)C2)ccc1C1COC1 [Example 345, 2-((3-fluoro-1H-pyrrolo[2,3-b]pyridin-5-yl)oxy)-N-((4-((((1r,4r)-4-hydroxy-4-methylcyclohexyl)methyl)amino)-3-nitrophenyl)sulfonyl)-4-(6-((R)-2-(2-isopropylphenyl)-4-(3-methoxy-4-(oxetan-3-yl)benzyl)piperazin-1-yl)-2-azaspiro[3.3]heptan-2-yl) benzamide]",0.16,0.16,0.38,2.4,0.14,0.24,0.13,0.8
"COc1cc(CN2CCN(C3CC4(C3)CN(c3ccc(C(=O)NS(=O)(=O)c5ccc(NC[C@H]6CC[C@](C)(O)CC6)c([N+](=O)[O-])c5)c(Oc5cnc6[nH]cc(F)c6c5)c3)C4)[C@H](c3ccccc3C(C)C)C2)cc2c1OCCCC2 [Example 347, 2-((3-fluoro-1H-pyrrolo[2,3-b]pyridin-5-yl)oxy)-N-((4-((((1r,4r)-4-hydroxy-4-methylcyclohexyl)methyl)amino)-3-nitrophenyl)sulfonyl)-4-(6-((R)-2-(2-isopropylphenyl)-4-((9-methoxy-2,3,4,5-tetrahydrobenzo[b]oxepin-7-yl)methyl)piperazin-1-yl)-2-azaspiro[3.3]heptan-2-yl) benzamide]",0.2,0.2,0.47,2.3,0.13,0.34,0.28,1.4
